Experimental data as given in article PMC8589421, “Impact of Type II LRRK2 inhibitors on signaling and mitophagy” (Biochemical Journal, 2021).
pIC50: −log10 of the molar value.

What was measured:
wild-type Flag-LRRK2 = target: T1, wild-type Flag-LRRK2 (Homo sapiens, UniProt Q5S007); assay: IC50 LRRK2 Nictide assay, wild type; assay type: biochemical
T1 construct: Human recombinant full length wild-type Flag-LRRK2 (#A15198); Flag (N); purchased ThermoFisher Scientific A15198
Description: (#A15201) purchased from ThermoFisher Scientific. […] After incubation for 30 min at room temperature, reactions were terminated by harvesting the whole reaction volume onto P81 phosphocellulose filter plate and immersion in 50 mM phosphoric acid. […] IC50 values were calculated with GraphPad Prism using non-linear regression analysis.

Flag-LRRK2[G2019S] = target: T2, Flag-LRRK2[G2019S] (Homo sapiens, UniProt Q5S007, G2019S); assay: IC50 LRRK2 Nictide assay, G2019S; assay type: biochemical; conditions: read-out: IC50 LRRK2 G2019S (100 µM ATP), Nictide peptide substrate, value ± SD
T2 construct: towards full length wild type and G2019S pathogenic LRRK2 mutant in a biochemical assay; Flag (N); purchased ThermoFisher Scientific A15201
T2 sequence (Q5S007 whole entry G2019S): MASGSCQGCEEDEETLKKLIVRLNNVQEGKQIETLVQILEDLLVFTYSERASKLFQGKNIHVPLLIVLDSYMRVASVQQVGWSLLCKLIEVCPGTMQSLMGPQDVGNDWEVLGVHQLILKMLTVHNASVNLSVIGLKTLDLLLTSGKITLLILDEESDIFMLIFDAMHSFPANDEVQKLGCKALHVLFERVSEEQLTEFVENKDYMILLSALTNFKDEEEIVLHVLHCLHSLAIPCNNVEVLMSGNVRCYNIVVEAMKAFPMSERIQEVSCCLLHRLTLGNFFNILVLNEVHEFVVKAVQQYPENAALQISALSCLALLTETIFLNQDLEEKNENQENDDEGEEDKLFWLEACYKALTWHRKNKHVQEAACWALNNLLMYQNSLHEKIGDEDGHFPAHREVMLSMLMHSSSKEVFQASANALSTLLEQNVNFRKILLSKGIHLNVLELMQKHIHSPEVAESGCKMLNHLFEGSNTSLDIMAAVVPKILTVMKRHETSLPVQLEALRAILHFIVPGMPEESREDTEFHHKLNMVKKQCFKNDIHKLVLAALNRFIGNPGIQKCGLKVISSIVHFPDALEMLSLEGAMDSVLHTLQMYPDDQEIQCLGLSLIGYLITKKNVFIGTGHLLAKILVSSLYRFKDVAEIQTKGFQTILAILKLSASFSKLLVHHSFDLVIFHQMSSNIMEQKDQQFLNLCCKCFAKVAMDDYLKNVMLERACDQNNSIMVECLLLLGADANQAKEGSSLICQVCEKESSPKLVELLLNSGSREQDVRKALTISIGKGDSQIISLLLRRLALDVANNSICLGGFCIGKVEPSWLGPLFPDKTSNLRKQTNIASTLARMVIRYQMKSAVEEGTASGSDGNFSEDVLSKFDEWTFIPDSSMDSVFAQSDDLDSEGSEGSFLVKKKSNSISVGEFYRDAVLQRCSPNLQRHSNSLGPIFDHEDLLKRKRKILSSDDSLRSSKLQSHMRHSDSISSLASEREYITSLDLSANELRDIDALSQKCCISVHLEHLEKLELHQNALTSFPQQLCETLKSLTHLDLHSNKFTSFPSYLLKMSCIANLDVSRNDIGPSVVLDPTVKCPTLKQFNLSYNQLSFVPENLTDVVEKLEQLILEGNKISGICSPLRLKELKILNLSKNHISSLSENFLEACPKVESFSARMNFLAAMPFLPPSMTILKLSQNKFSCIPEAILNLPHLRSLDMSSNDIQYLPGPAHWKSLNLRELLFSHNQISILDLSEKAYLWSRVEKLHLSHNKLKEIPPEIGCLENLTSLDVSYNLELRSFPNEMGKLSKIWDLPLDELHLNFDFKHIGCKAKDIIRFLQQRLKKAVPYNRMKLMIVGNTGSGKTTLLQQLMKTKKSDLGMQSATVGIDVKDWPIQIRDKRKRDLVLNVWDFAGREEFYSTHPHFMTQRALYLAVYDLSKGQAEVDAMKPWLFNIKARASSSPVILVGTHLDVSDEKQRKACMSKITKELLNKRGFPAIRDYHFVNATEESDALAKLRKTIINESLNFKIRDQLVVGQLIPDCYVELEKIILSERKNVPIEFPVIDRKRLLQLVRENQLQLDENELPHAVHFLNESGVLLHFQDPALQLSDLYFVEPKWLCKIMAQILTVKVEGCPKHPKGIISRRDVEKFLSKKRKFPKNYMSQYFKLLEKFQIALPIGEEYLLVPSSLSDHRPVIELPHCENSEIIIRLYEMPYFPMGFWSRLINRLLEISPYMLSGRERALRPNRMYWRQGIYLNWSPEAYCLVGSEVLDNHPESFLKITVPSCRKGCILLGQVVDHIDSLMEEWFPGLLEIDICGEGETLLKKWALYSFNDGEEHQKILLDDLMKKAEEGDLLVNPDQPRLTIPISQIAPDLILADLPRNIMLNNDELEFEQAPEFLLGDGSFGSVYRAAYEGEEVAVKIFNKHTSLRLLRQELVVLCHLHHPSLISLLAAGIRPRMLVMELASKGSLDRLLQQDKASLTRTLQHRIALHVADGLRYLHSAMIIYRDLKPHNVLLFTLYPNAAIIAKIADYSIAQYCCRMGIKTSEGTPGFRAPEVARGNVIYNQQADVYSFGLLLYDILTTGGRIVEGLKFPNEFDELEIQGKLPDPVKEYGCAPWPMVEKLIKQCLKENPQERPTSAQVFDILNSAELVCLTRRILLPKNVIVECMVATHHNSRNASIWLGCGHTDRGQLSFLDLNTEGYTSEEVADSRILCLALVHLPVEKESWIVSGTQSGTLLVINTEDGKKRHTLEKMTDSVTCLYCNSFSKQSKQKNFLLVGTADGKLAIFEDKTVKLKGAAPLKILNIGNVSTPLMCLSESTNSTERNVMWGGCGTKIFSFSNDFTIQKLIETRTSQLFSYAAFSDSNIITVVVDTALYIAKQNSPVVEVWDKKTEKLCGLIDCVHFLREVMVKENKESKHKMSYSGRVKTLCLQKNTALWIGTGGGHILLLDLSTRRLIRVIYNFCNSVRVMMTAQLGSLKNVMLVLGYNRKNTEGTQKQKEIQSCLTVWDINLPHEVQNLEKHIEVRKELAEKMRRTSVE

[1] = system: Dundee panel of 140 protein kinases; assay: Kinase profiling; assay type: biochemical
Text: […] Results for each kinase are presented as the mean kinase activity ±S.D. for an assay undertaken in duplicate relative to a control kinase assay in which the inhibitor was omitted. Abbreviations and assay conditions used for each kinase are available (http://www.kinase-screen.mrc.ac.uk/services/premier-screen).

LRRK2 14-3-3 binding = system: T3, LRRK2 14-3-3 binding; assay: Analysis of 14-3-3 binding in HEK293 cells overexpressing wild-type LRRK2; assay type: cell-based, human; conditions: 5 μM GZD-824 for 4 h, 1 μM GSK3357679A
T3 construct: host or cells: HEK293
Description: This was undertaken as described previously. Briefly, wild-type FLAG-LRRK2 was transiently expressed in HEK293 cells with HA-Rab29. Twenty-four hours post-transfection cells were lysed with lysis buffer and snap frozen. LRRK2 was immunoprecipitated from 4 mg of lysate using 20 μl anti-FLAG-M2 agarose beads (Sigma, #A2220) for 2 h in rotation at +4°C. Immunoprecipitates were washed once with lysis buffer supplemented with 0.5% (by vol) Nonidet P-40 (instead of Triton X-100) and 0.5 M NaCl followed by two washes. Samples were eluted in 2× LDS sample buffer (20 µl per 10 µl of resin) and heated at 70°C for 10 min. After centrifugation through 0.22 µm Spin X filter, the eluted protein was subjected to immunoblotting with the indicated antibodies. An amount of 10 μl of the final reaction mixture was needed for the detection of binding of endogenous 14-3-3 and 1 µl for detection of LRRK2.

[2] = system: LRRK2 Ser935 phosphorylation; assay: Ser935 phosphorylation in HEK293 cells overexpressing wild-type LRRK2; assay type: cell-based, human; conditions: 1 μM
Description: Cell extracts were mixed with a quarter of a volume of NuPage LDS Sample buffer 4× Invitrogen and heated at 95°C for 5 min. […] At the end of electrophoresis, proteins were electrophoretically transferred onto the nitrocellulose membrane (GE Healthcare, Amersham Protran Supported 0.45 µm NC) at 100 V for 90 min on ice in the transfer buffer (48 mM Tris–HCl and 39 mM glycine supplemented with 20% methanol). Transferred membrane was blocked with 5% (w/v) skim milk powder dissolved in TBS-T [20 mM Tris–HCl, pH 7.5, 150 mM NaCl and 0.1% (v/v) Tween 20] at room temperature for 1 h. The membrane was typically cropped into three pieces, namely the ‘top piece’ (from the top of the membrane to 75 kDa), the ‘middle piece’ (between 75 and 30 kDa) and the ‘bottom piece’ (from 30 kDa to the bottom of the membrane). All primary antibodies were used at 1 μg/ml final concentration and incubated in TBS-T containing 5% (by mass) bovine serum albumin with exception of α-tubulin and GAPDH antibodies that were diluted 1 : 5000 and 1 : 2000, respectively. The top piece was incubated with the indicated rabbit anti-LRRK2 phosphorylation site antibody multiplexed with mouse anti-LRRK2 C-terminus total antibody. […] Protein bands were acquired via near infrared fluorescent detection using the Odyssey CLx imaging system and quantified using the Image Studio software. […]

[3] = system: Rab29 mediated relocalization of LRRK2 to the Golgi apparatus; assay: Rab29 mediated recruitment of LRRK2 to the Golgi, immunofluorescence in HeLa cells; assay type: cell-based, human; conditions: 5 μM GZD-824 or 1 μM GSK3357679A for 4 h
Description: HeLa cells were seeded on coverslips and transfected with the plasmid reported in each image 24 h before fixation. Following the treatments with the inhibitors described in figure legends, cells were washed twice in DPBS and fixed with 3.7% Paraformaldehyde pH 7.3 (Agar scientific, #R1026), 200 mM HEPES, for 20 min. Cells were then washed twice with DMEM, 20 mM HEPES, and then incubated for 10 min with DMEM, 10 mM HEPES. After two washes in DPBS, fixed cells were permeabilized with 0.2% (by vol) NP-40 in DPBS for 10 min. Cells were blocked using 1% (by mass) BSA in DPBS, then incubated for 1 h with primary antibodies diluted in 1% (by mass) BSA in DPBS, washed three times in 0.2% (by mass) BSA in DPBS, and incubated for 1 h with secondary antibodies. The coverslips were washed three times with 0.2% (by mass) BSA in PBS. Coverslips were washed once more in double distilled water and mounted on slides (VWR, #631-0909) using ProLong™ Diamond Antifade Mountant (ThermoFisher, #P36961). For localization of the Golgi compartment, Golgin-97 was stained with rabbit anti-GM97 (CST, #D8P2K) and visualized with goat anti-rabbit conjugated to Alexa Fluor 405 (Life Technologies, #P10994). HA-Rab29 was stained with mouse anti-HA (Abcam, clone HA.C5 #ab18181) and visualized with goat anti-mouse conjugated to Alexa Fluor 594 (Life Technologies, #A-11032). […]

[4] = system: basal mitophagy, wild type MEFs; assay: mito-QC basal mitophagy in wild-type primary MEFs; assay type: cell-based, mouse; conditions: 24 h, 30–300 nM GZD-824, GSK3357679A 100 nM positive control
Description: (§1) To assess mitophagy, wild type, G2019S knock in, and LRRK2 knock out primary mouse embryonic fibroblasts (MEFs) were derived, from time-mated pregnant females at E12.5 as previously described. Briefly, cells were plated on glass coverslips and incubated with DMEM (Gibco, 11960-044) supplemented with 10% FBS, 2 mM L-Glutamine (Gibco, 2503-081), 1% non-essential amino acids (Gibco, 11140-035), 1% Antibiotics (Penicillin/Streptomycin 100 U/ml penicillin and 100 µg/ml streptomycin; Gibco), and 150 µM β-Mercaptoethanol (Gibco, 21985-023) at 37°C under a humidified 5% CO2 atmosphere. […] GSK3357679A 100 nM (Ding et al., in prep) was used as a positive control. At the end of the treatment, MEFs were briefly washed twice in DPBS (Gibco, 14190-094), and fixed in 3.7% Paraformaldehyde pH 7.00 (Sigma, P6148), 200 mM HEPES, for 20 min. Cells were then washed two times with DMEM, 10 mM HEPES, and then incubated for 10 min with DMEM, 10 mM HEPES. […] Images were acquired using a Nikon Eclipse Ti-S fluorescence microscope with a 63× objective. Images were analyzed using the mito-QC counter as previously described. Experiments were performed in 3–4 independent experiments and data was analyzed with a one-way ANOVA followed by a Dunnett's multiple comparison test using the GraphPad Prism software (version 8.4.3 (686)).

[5] = system: basal mitophagy, LRRK2[G2019S] MEFs; assay: mito-QC basal mitophagy in LRRK2[G2019S] knock-in primary MEFs; assay type: cell-based, mouse; conditions: 24 h, 30–300 nM GZD-824, GSK3357679A 100 nM positive control
Description: as §1

[6] = system: basal mitophagy, LRRK2 knock-out MEFs; assay: mito-QC basal mitophagy in LRRK2 knock-out primary MEFs; assay type: cell-based, mouse; conditions: 24 h
Description: as §1

T1 sequence (Q5S007 whole entry): as the sequence (Q5S007 whole entry G2019S) above, with S2019G counted along it

GSK3357679A
IC50 LRRK2 WT (100 µM ATP) (wild-type Flag-LRRK2; Nictide peptide substrate, value ± SD): sub-nanomolar potency
pIC50 (wild-type Flag-LRRK2; read-out: IC50 LRRK2 WT (100 µM ATP), Nictide peptide substrate, value ± SD): 9.52
pIC50 (Flag-LRRK2[G2019S]): 9.47
kinase selectivity (panel of 140 protein kinases) [1]: highly selective
impact on 14-3-3 binding to LRRK2 (LRRK2 14-3-3 binding): ablated
effect on Ser935 phosphorylation [2]: ablated
impact on Rab29 mediated recruitment of LRRK2 to the Golgi [3]: no impact
stimulation of basal mitophagy [4]: ~2 fold
stimulation of basal mitophagy [5]: ~2 fold
impact on basal mitophagy in LRRK2 knock-out cells [6]: neither GZD-824 or GSK3357679A impacted basal mitophagy
